{"source": "patent US20070134233A1", "about": "“Compositions and methods relating to organ-, tissue-, and cell-specific antibodies” (Phylonix Pharmaceuticals, Inc., priority 2004, published 2007)", "key": {"[1]": {"test_system": "activated endothelial cells in the zebrafish embryo", "experiment": "Quantitative in vivo EC proliferation assay (whole animal Phy-V002 ELISA)", "details": "~20 hpf embryos treated for 28 hours", "protocol": "Quantitative in vivo EC proliferation assay: Embryos were fixed by Dent's fixative (DMSO/methanol=1/3) at room temperature (23+2° C.) for 3 hours, dehydrated to 100% EtOH following standard dehydration procedures. Embryos were then permeabilized, rehydrated, treated with horseradish peroxidase (HRP) suppressor to inhibit endogenous HRP. After treatment with 1 M NH4Cl at room temperature for 3 hours to quench autofluorescence, embryos were then blocked and incubated with Phy-V002 mAb following a standard procedure (see Westerfield, supra). After washing with PBST, embryos were incubated with HRP-conjugated secondary antibody. QuantaBlu (Pierce) was used as the fluorescence enzyme substrate; the stained EC was quantified by measuring the fluorescence units of the enzymatic end product at 315-340 nm (excitation)/370-470 nm (emission) using SPECTRAmax Gemini microplate reader (Molecular Devices).\nDrug effect on EC proliferation was calculated by the following formula: [formula]"}, "[2]": {"test_system": "angiogenic vessel growth in zebrafish embryos", "experiment": "Quantitative in vivo microplate assay using Phy-V001 mAb", "details": "for Vessel Reduction (%) Zebrafish: single dosing, Concentration SU5416 2 μM, Flavopiridol 3 μM; for effect on angiogenic vessel development (discussion summary): 2 dpf and 3 dpf stages"}, "[3]": {"test_system": "zebrafish embryos", "experiment": "Embryo death and body malformation after drug treatment", "format": "in vivo", "protocol": "Assay validation with small molecule drugs: Using the whole mount immunostaining technique described supra, several small molecule drugs were tested. […] Flavopiridol is a cyclin-dependent kinase inhibitor known to inhibit cell proliferation (Senderowicz, Invest. New Drugs 17:313-20, 1999). COL-1 and COL-3 are inhibitors of matrix metalloproteases (MMPs), which are known to play a crucial role in vascular endothelial cell migration (Seftor et al. 2001). During early embryo development (˜12 hpf), many structures including the notochord, the somites, and the heart are beginning to form and these structures directly affect both vasculargenesis and angiogenesis. After 20 hpf, since the DA and the PCV are fully formed, drug effects on vessel formation are less likely to be secondary effects (indirect effects due to damage to the notochord, somites, or heart). Therefore, ˜1 dpf was chosed as the time point to initiate drug treatment. Embryos were incubated with varying concentrations of each drug continuously for 48 hours. Drug effects were examined at 2 dpf and 3 dpf."}, "[4]": {"test_system": "angiogenic vessel development in zebrafish embryos", "experiment": "Whole mount immunostaining with Phy-V001 of drug-treated embryos", "format": "in vivo", "details": "for ISV staining by Phy-V001: 48 hours; for ISV staining by Phy-V001 / vasculature compared to controls: at 3 dpf; for vasculature compared to controls: various concentrations"}, "[5]": {"test_system": "zebrafish embryos", "experiment": "Embryo growth inhibition by body length", "format": "in vivo", "details": "5 μM for 4 days", "protocol": "Drugs cause growth retardation: Many drugs cause growth inhibition. […] 1 dpf embryos are treated with identified “hit” drugs at various concentrations for 4 days. Body length is measured at 5 dpf and plotted against drug concentration. Normal untreated and 0.1% DMSO treated embryos are used as controls. At least 10 embryos are used for each condition."}, "[6]": {"test_system": "EC", "details": "serum of patients treated with flavopiridol; cited from earlier work"}, "[7]": {"test_system": "Mouse Tumor", "details": "12 mg/ml/day, dosing frequency 18; cited from earlier work"}, "[8]": {"test_system": "vessel formation in zebrafish embryos", "experiment": "In vivo vessel formation assay (Phy-V002 staining)", "details": "2 dpf embryos", "text": "In vivo vesselformation assay: Embryos were processed as described in “In vivo EC migration Assay,” supra, and examined by fluorescence microscopy. Images of stained embryos were captured by CCD camera and analyzed by Adobe Photoshop software. Higher magnification (10×) images of control and drug treated embryos at the region where vessel defects were observed were quantitated by morphometric analysis (Signal (S)=[area (pixel) X signal intensity]) using Scion Image program. Percent (%) inhibition in vessel formation can be calculated by the following formula: [formula] Results 1. Quantitative in Vivo EC Proliferation Assay"}}, "note": "“Also recorded” adds a separate entry of the source.", "data": [{"compound": "CN1CC[C@H](c2c(O)cc(O)c3c(=O)cc(-c4ccccc4Cl)oc23)[C@H](O)C1", "note": "[flavopiridol]", "values": [{"measurement": "% inhibition in EC proliferation, dose response", "setting": "[1]", "result": "% inhibition in EC proliferation increasing proportionally with drug concentration"}, {"measurement": "inhibition at 1 µM", "setting": "[2]; Danio rerio, 1 μM, at 2 dpf", "result": 13, "unit": "%"}, {"measurement": "inhibition at 3 µM", "setting": "[2]; Danio rerio, 3 μM, at 2 dpf, read-out: maximum inhibition of angiogenic vessel growth", "result": "~27", "unit": "%"}, {"measurement": "inhibition at 5 µM", "setting": "[2]; Danio rerio, 5 μM, at 3 dpf", "result": "~17", "unit": "%"}, {"measurement": "Vessel Reduction (%) Zebrafish", "setting": "[2]", "result": "˜27%"}, {"measurement": "body formation of surviving embryos", "setting": "[3]; 5 μM, at 2 dpf", "result": "truncated body formation"}, {"measurement": "embryos died", "setting": "[3]; 5 μM, at 2 dpf", "result": "~16", "unit": "%"}, {"measurement": "embryos died", "setting": "[3]; 7 μM, at 2 dpf", "result": "~20", "unit": "%"}, {"measurement": "embryos died", "setting": "[3]; 7 μM, at 3 dpf", "result": "All the 7 μM flavopiridol treated embryos died"}, {"measurement": "Inhibition of angiogenic vessel development (Phy-V001 staining)", "setting": "[4]; 1 μM, at 2 dpf", "result": "inhibitory effect was not obvious"}, {"measurement": "Inhibition of angiogenic vessel development (Phy-V001 staining)", "setting": "[4]; 3 μM, at 2 dpf", "result": "ISV staining in the trunk region decreased"}, {"measurement": "Inhibition of angiogenic vessel development (Phy-V001 staining)", "setting": "[4]; 5 μM, at 2 dpf, surviving embryos", "result": "dramatic decrease in ISV staining"}, {"measurement": "Inhibition of angiogenic vessel development (Phy-V001 staining)", "setting": "[4]; 7 μM, at 2 dpf, surviving embryos", "result": "decreased staining in ISVs"}, {"measurement": "ISV staining by Phy-V001", "setting": "[4]; 1, 3, and 5 μM", "result": "staining intensity appeared weaker"}, {"measurement": "overall embryo growth, body length", "setting": "[5]", "result": "caused inhibition of overall embryo growth"}, {"measurement": "Vessel Reduction (%) EC Proliferation", "setting": "[6]", "result": "˜32%"}, {"measurement": "Vessel Reduction (%) EC Proliferation, range", "setting": "[6]", "result": "(8-70% range)"}]}, {"compound": "NC(=O)C1=C(O)C[C@@H]2C[C@@H]3Cc4cccc(O)c4C(=O)C3=C(O)[C@]2(O)C1=O", "note": "[COL-3]", "values": [{"measurement": "maximum inhibition of angiogenic vessel growth", "setting": "[2]; 5 μM, at 2 dpf", "result": "~39", "unit": "%"}, {"measurement": "inhibition on angiogenic vessel development", "setting": "[2]; 1 to 10 μM, at 3 dpf", "result": "~25", "unit": "%"}, {"measurement": "effect on angiogenic vessel development (discussion summary)", "setting": "[2]", "result": "significant inhibitory effect"}, {"measurement": "Change in vessel pattern", "setting": "[4]; at 2 dpf, concentration not given", "result": "caused a loss of a few ISVs"}, {"measurement": "vasculature compared to controls", "setting": "[4]", "result": "appeared unchanged"}]}, {"compound": "Cc1cc(C)c(/C=C2\\C(=O)Nc3ccccc32)[nH]1", "note": "[SU5416]", "values": [{"measurement": "inhibition in angiogenic vessel growth", "setting": "[2]; 48 hours treatment, at 3 dpf, surviving embryos", "result": "No significant inhibition"}, {"measurement": "inhibition at 15 µM", "setting": "[2]; Danio rerio, 15 μM, at 2 dpf, read-out: maximum inhibition in vessel growth", "result": "~40.5", "unit": "%"}, {"measurement": "Vessel Reduction (%) Zebrafish", "setting": "[2]", "result": "˜40.5%"}, {"measurement": "body formation of surviving embryos", "setting": "[3]; 20 μM, at 2 dpf", "result": "truncated body formation"}, {"measurement": "Inhibition of angiogenic vessel development (Phy-V001 staining)", "setting": "[4]; 10 μM, 24 hours, at 2 dpf", "result": "inhibitory effect was not obvious"}, {"measurement": "Inhibition of angiogenic vessel development (Phy-V001 staining)", "setting": "[4]; 15 μM, 24 hours, at 2 dpf", "result": "dramatic decrease in Phy-V001 staining"}, {"measurement": "Inhibition of angiogenic vessel development (Phy-V001 staining)", "setting": "[4]; 20 μM, at 2 dpf, surviving embryos", "result": "ISVs were barely detectable"}, {"measurement": "ISV staining by Phy-V001", "setting": "[4]; 10 and 15 μM", "result": "staining was weaker"}, {"measurement": "Vessel Reduction (%) Mouse Tumor", "setting": "[7]", "result": "˜42%"}, {"measurement": "vessel formation (cranial vessels and ISVs)", "setting": "[8]; 1 μM", "result": "partially missing; also recorded: abnormal when compared to control embryos"}, {"measurement": "vessel formation (cranial vessels and ISVs)", "setting": "[8]; 2.5 μM and higher", "result": "nearly completely absent"}]}, {"compound": "Cc1[nH]c(/C=C2\\C(=O)Nc3ccc(Br)cc32)c(C)c1CCC(=O)O", "note": "[SU9518]", "values": [{"measurement": "angiogenic vessel inhibition", "setting": "[2]; 0.1 μM to 100 μM, at 2 dpf", "result": "did not result in any angiogenic vessel inhibition"}, {"measurement": "effect on angiogenic vessel development (discussion summary)", "setting": "[2]", "result": "did not have any effect"}, {"measurement": "Change in vessel development compared to control", "setting": "[4]; 0.1 μM to 100 μM, at 2 dpf", "result": "did not cause a change in vessel development"}, {"measurement": "vasculature compared to controls", "setting": "[4]", "result": "appeared unchanged"}]}, {"compound": "COc1cc2c(cc1O)CC[C@@H]1[C@@H]2CC[C@]2(C)[C@@H](O)CC[C@@H]12", "note": "[2-methoxyestradiol]", "values": [{"measurement": "% inhibition in EC proliferation, dose response", "setting": "[1]", "result": "% inhibition in EC proliferation increasing proportionally with drug concentration"}]}]}
